Assay results published in US6500853B1, “Inhibitors of phospholipase enzymes” (Genetics Institute, LLC, priority 1998, dated 2002).
Values belong to the compound of their own block, whether it stands above or below them.

Key:
cPLA2 = biological target: T1, cPLA2 (Homo sapiens, UniProt P47712); experiment: Coumarin Assay (cPLA2 inhibition); format: biochemical; settings: for inhibition at 100 µM: CONCENTRATION 100 micromolar; for inhibition at 0.65 µM: CONCENTRATION 0.65 micromolar; for inhibition at 50 µM: CONCENTRATION 50 micromolar; for inhibition at 0.4 µM: CONCENTRATION 0.4 micromolar; for inhibition at 0.55 µM: CONCENTRATION 0.55 micromolar; for inhibition at 0.6 µM: CONCENTRATION 0.6 micromolar; for inhibition at 13 µM: CONCENTRATION 13 micromolar
T1 sequence (P47712 1-749): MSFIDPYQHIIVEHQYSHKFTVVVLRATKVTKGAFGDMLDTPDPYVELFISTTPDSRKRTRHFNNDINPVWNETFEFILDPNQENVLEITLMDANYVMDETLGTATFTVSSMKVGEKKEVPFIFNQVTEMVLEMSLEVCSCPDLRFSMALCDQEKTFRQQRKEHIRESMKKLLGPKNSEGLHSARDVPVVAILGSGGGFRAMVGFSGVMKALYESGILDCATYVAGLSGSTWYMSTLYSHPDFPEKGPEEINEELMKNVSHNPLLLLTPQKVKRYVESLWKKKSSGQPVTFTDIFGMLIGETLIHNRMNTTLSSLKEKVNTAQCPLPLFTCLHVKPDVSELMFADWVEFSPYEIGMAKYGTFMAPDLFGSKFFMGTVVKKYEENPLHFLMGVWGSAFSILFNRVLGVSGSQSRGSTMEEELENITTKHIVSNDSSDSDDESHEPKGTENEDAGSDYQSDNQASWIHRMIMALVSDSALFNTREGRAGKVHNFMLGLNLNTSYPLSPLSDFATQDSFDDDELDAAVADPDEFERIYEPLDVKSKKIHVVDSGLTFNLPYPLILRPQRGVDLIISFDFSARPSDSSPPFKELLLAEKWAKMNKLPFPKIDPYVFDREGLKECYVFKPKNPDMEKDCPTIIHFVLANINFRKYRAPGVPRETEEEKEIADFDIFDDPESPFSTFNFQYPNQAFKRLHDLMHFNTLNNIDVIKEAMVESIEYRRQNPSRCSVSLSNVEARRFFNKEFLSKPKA
In short: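 Percent inhibition at the stated concentration, from the rate of 460 nm emission rise (360 nm excitation) per minute. Reaction started by adding 4 μg enzyme to compound and 60 μM 7-hydroxycoumarinyl 6-heptenoate in Hepes buffer pH 7.5 with 1 mM EDTA.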

[1] = tested on: Rat Carrageenan-Induced Footpad Edema; experiment: Rat Carrageenan-Induced Footpad Edema Test; format: in vivo, male Sprague Dawley rats; settings: footpad volume 3 hours after carrageenan; for inhibition in vivo at 5 mg/kg / inhibition in vivo at 2 mg/kg / inhibition in vivo at 10 mg/kg: Rattus norvegicus, 3 h, read-out: PERCENT INHIBITION; for inhibition in vivo at 5 mg/kg: iv; for inhibition in vivo at 2 mg/kg / inhibition in vivo at 10 mg/kg: po, PO
[2] = CONCENTRATION 6.25 micromolar, read-out: PERCENT INHIBITION @

Compound: COc1cc(C(=O)O)ccc1Cc1cn(C(c2ccccc2)c2ccccc2)c2ccc(C)cc12 [Example 15, 4-[(1-benzhydryl-5-methyl-1H-indol-3-yl)methyl]-3-methoxybenzoic acid]
inhibition at 0.65 µM (cPLA2; read-out: PERCENT INHIBITION @): 50%
inhibition at 0.72 µM (cPLA2; CONCENTRATION 0.72 micromolar, read-out: PERCENT INHIBITION @): 50%
inhibition at 0.76 µM (cPLA2; CONCENTRATION 0.76 micromolar, read-out: PERCENT INHIBITION @): 50%
inhibition at 0.85 µM (cPLA2; CONCENTRATION 0.85 micromolar, read-out: PERCENT INHIBITION @): 50%
inhibition at 6.25 µM (cPLA2; [2]): 90%
inhibition in vivo at 2 mg/kg [1]: 7.05%
inhibition in vivo at 10 mg/kg [1]: 6.88%

Compound: 4-({5-[(cyclopentylcarbonyl)amino]-1-[phenyl(2-pyridinyl)methyl]-1H-indol-3-yl}methyl)-3-methoxybenzoic acid [Example 44]
PERCENT INHIBITION @ (cPLA2; CONCENTRATION 1.65 micromolar): 50%
PERCENT INHIBITION @ (cPLA2; CONCENTRATION 1.7 micromolar): 50%
PERCENT INHIBITION @ (cPLA2; CONCENTRATION 1.75 micromolar): 50%
PERCENT INHIBITION @ (cPLA2; CONCENTRATION 1.9 micromolar): 50%
PERCENT INHIBITION @ (cPLA2; CONCENTRATION 2.1 micromolar): 50%
PERCENT INHIBITION @ (cPLA2; CONCENTRATION 2.5 micromolar): 71%
PERCENT INHIBITION @ (cPLA2; CONCENTRATION 6.25 micromolar): 97%
PERCENT INHIBITION ([1]; IV, 5 mg/Kg): 11.9%

Compound: COc1cc(C(=O)NS(=O)(=O)C(F)(F)F)ccc1Cc1cn(C(c2ccccc2)c2ccccc2)c2ccc([N+](=O)[O-])cc12 [Example 37, N-{4-[(1-benzhydryl-5-nitro-1H-indol-3-yl)methyl]-3-methoxybenzoyl}(trifluoro)methanesulfonamide]
inhibition at 0.4 µM (cPLA2; read-out: PERCENT INHIBITION @): 50%
inhibition at 0.5 µM (cPLA2; CONCENTRATION 0.5 micromolar, read-out: PERCENT INHIBITION @): 50%
inhibition at 0.55 µM (cPLA2; read-out: PERCENT INHIBITION @): 50%
inhibition at 0.65 µM (cPLA2; read-out: PERCENT INHIBITION @): 50%
inhibition in vivo at 2 mg/kg [1]: -7.94%
inhibition in vivo at 10 mg/kg [1]: 3.36%

Compound: COc1cc(C(=O)NS(=O)(=O)c2ccccc2Cl)ccc1Cc1cn(C(c2ccccc2)c2ccccc2)c2ccc(NC(=O)OC3CCCC3)cc12 [Example 28, cyclopentyl N-{1-benzhydryl-3-[4-({[(2-chlorophenyl)sulfonyl]amino}carbonyl)-2-methoxybenzyl]-1H-indol-5-yl}carbamate]
inhibition at 4.2 µM (cPLA2; CONCENTRATION 4.2 micromolar, read-out: PERCENT INHIBITION @): 50%
inhibition at 4.4 µM (cPLA2; CONCENTRATION 4.4 micromolar, read-out: PERCENT INHIBITION @): 50%
inhibition in vivo at 5 mg/kg ([1]; IV, 5 mg/Kg): 0.29%

Compound: COc1cc(C(=O)O)ccc1Cc1cn(C(c2ccccc2)c2ccccc2)c2ccc(Br)cc12 [Example 13, 4-[(1-benzhydryl-5-bromo-1H-indol-3-yl)methyl]-3-methoxybenzoic acid]
inhibition at 0.39 µM (cPLA2; CONCENTRATION 0.39 micromolar, read-out: PERCENT INHIBITION @): 50%
inhibition at 0.4 µM (cPLA2; read-out: PERCENT INHIBITION @): 50%
inhibition at 0.48 µM (cPLA2; CONCENTRATION 0.48 micromolar, read-out: PERCENT INHIBITION @): 50%
inhibition at 0.55 µM (cPLA2; read-out: PERCENT INHIBITION @): 50%
inhibition at 0.6 µM (cPLA2; read-out: PERCENT INHIBITION @): 50%
inhibition at 0.65 µM (cPLA2; read-out: PERCENT INHIBITION @): 50%
inhibition at 0.7 µM (cPLA2; CONCENTRATION 0.7 micromolar, read-out: PERCENT INHIBITION @): 50%
inhibition at 0.75 µM (cPLA2; CONCENTRATION 0.75 micromolar, read-out: PERCENT INHIBITION @): 50%
inhibition at 0.95 µM (cPLA2; CONCENTRATION 0.95 micromolar, read-out: PERCENT INHIBITION @): 50%
inhibition at 2.5 µM (cPLA2; CONCENTRATION 2.5 micromolar, read-out: PERCENT INHIBITION @): 73%
inhibition at 6.25 µM (cPLA2; [2]): 81%
inhibition in vivo at 2 mg/kg [1]: 26%
inhibition in vivo at 10 mg/kg [1]: 23.6%

Compound: O=C(Nc1cccc(C(=O)O)c1)C(=O)c1cn(C(c2ccccc2)c2ccccc2)c2ccc(NC(=O)C3CCCC3)cc12 [Example 104, 3-[(2-{1-benzhydryl-5-[(cyclopentylcarbonyl)amino]-1H-indol-3-yl}-2-oxoacetyl)amino]benzoic acid]
inhibition at 22 µM (cPLA2; CONCENTRATION 22 micromolar, read-out: PERCENT INHIBITION @): 50%
inhibition at 24 µM (cPLA2; CONCENTRATION 24 micromolar, read-out: PERCENT INHIBITION @): 50%
inhibition in vivo at 2 mg/kg [1]: 14.5%
inhibition in vivo at 10 mg/kg [1]: 6.01%

Compound: CCCCNC(=O)Nc1ccc2c(c1)c(Cc1ccc(C(=O)O)cc1OC)cn2C(c1ccccc1)c1ccccc1 [Example 9, 4[(1-benzhydryl-5-{[(butylamino)carbonyl]amino}-1H-indol-3-yl)methyl]3-methoxybenzoic acid]
inhibition at 13 µM (cPLA2; read-out: PERCENT INHIBITION @): 50%
inhibition at 19 µM (cPLA2; CONCENTRATION 19 micromolar, read-out: PERCENT INHIBITION @): 50%
inhibition in vivo at 5 mg/kg ([1]; IV, 5 mg/Kg): 4.46%

Now from value to compound, other results behind:

inhibition at 100 µM (cPLA2; read-out: PERCENT INHIBITION @): 22%
inhibition at 265 µM (cPLA2; CONCENTRATION 265 micromolar, read-out: PERCENT INHIBITION @): 50%
inhibition at 350 µM (cPLA2; CONCENTRATION 350 micromolar, read-out: PERCENT INHIBITION @): 50%
Compound: O=C(O)CCc1cn(C(c2ccccc2)c2ccccc2)c2ccc(NC(=O)C3CCCC3)cc12 [Example 84, 3-{1-benzhydryl-5-[(cyclopentylcarbonyl)amino]-1H-indol-3-yl}propanoic acid]
inhibition in vivo at 5 mg/kg ([1]; IV, 5 mg/Kg): 6.15%

inhibition at 50 µM (cPLA2; read-out: PERCENT INHIBITION @): 50%
inhibition at 80 µM (cPLA2; CONCENTRATION 80 micromolar, read-out: PERCENT INHIBITION @): 50%
inhibition at 94 µM (cPLA2; CONCENTRATION 94 micromolar, read-out: PERCENT INHIBITION @): 50%
Compound: COc1cc(C(N)=O)ccc1Cc1cn(C(c2ccccc2)c2ccccc2)c2ccc(NC(=O)OC3CCCC3)cc12 [Example 97, Cyclopentyl-N-{3-[4-(aminocarbonyl)-2-methoxybenzyl]-1-benzhydryl-1H-indol-5-yl}carbamate]
inhibition in vivo at 5 mg/kg ([1]; IV, 5 mg/Kg): 21.3%

inhibition at 50 µM (cPLA2; read-out: PERCENT INHIBITION @): 33%
inhibition at 95 µM (cPLA2; CONCENTRATION 95 micromolar, read-out: PERCENT INHIBITION @): 50%
Compound: O=C(O)/C=C/c1cn(C(c2ccccc2)c2ccccc2)c2ccc([N+](=O)[O-])cc12 [Example 87A, (E)-3-{1-benzhydryl-5-nitro-1H-indol-3-yl}-2-propenoic acid]
inhibition in vivo at 2 mg/kg [1]: 12.9%
inhibition in vivo at 10 mg/kg [1]: 25.4%

inhibition at 3.8 µM (cPLA2; CONCENTRATION 3.8 micromolar, read-out: PERCENT INHIBITION @): 50%
inhibition at 4.25 µM (cPLA2; CONCENTRATION 4.25 micromolar, read-out: PERCENT INHIBITION @): 50%
Compound: COc1cc(C(=O)O)ccc1Cc1cn(C(c2ccccc2)c2ccccc2)c2ccc(NS(=O)(=O)c3ccc(Cl)c([N+](=O)[O-])c3)cc12 [Example 91, 4-[(1-benzhydryl-5-{[(4-chloro-3-nitrophenyl)sulfonyl]amino}-1H-indol-3-yl)methyl]-3-methoxybenzoic acid]
inhibition in vivo at 2 mg/kg [1]: 13.5%
inhibition in vivo at 10 mg/kg [1]: 14.7%

inhibition at 0.6 µM (cPLA2; read-out: PERCENT INHIBITION @): 50%
inhibition at 0.8 µM (cPLA2; CONCENTRATION 0.8 micromolar, read-out: PERCENT INHIBITION @): 50%
inhibition at 0.9 µM (cPLA2; CONCENTRATION 0.9 micromolar, read-out: PERCENT INHIBITION @): 50%
Compound: O=C(O)c1ccc(Cc2cn(C(c3ccccc3)c3ccccc3)c3ccc(Br)cc23)cc1 [Example 51, 4-[(1-benzhydryl-5-bromo-1H-indol-3-yl)methyl]benzoic acid]
inhibition in vivo at 2 mg/kg [1]: 3.23%
inhibition in vivo at 10 mg/kg [1]: 15.4%

inhibition at 11.5 µM (cPLA2; CONCENTRATION 11.5 micromolar, read-out: PERCENT INHIBITION @): 50%
inhibition at 13 µM (cPLA2; read-out: PERCENT INHIBITION @): 50%
Compound: COc1cc(C(=O)O)ccc1Cc1cn(C(c2ccccc2)c2ccccc2)c2ccc(NS(=O)(=O)c3c(C)nn(C)c3Cl)cc12 [Example 95, 4-[(1-benzhydryl-5-{[(5-chloro-1,3-dimethyl-1H-pyrazol-4-yl)sulfonyl]amino}-1H-indol-3-yl)methyl]-3-methoxybenzoic acid]
inhibition in vivo at 2 mg/kg [1]: 14.9%
inhibition in vivo at 10 mg/kg [1]: 23.2%

inhibition at 100 µM (cPLA2; read-out: PERCENT INHIBITION @): 9%
inhibition at 400 µM (cPLA2; CONCENTRATION 400 micromolar, read-out: PERCENT INHIBITION @): 18%
Compound: O=C(Nc1ccc2c(c1)c(CNC(CO)C(=O)O)cn2C(c1ccccc1)c1ccccc1)C1CCCC1 (stereo not drawn) [Example 68, 2-[({1-benzhydryl-5-[(cyclopentylcarbonyl)amino]-1H-indol-3-yl}methyl)amino]-3-hydroxypropanoic acid]
inhibition in vivo at 5 mg/kg ([1]; IV, 5 mg/Kg): -4.3%
